Results from doi:10.1101/2022.05.04.490172v1 (biorxiv, 2022).

How the values were obtained:
[1] = tested on: BRN2 (POU3F2), luciferase reporter assay; experiment: cells; conditions: for inhibition at 10 µM: read-out: % of Inhibition (Luciferase assay) / 10µM; for inhibition at 30 µM: read-out: % of Inhibition (Luciferase assay) / 30µM; for % of Inhibition (Luciferase assay) / 10µM / % of Inhibition (Luciferase assay) / 30µM: inhibitor
[2] = target: T1, BRN2 (POU3F2), purified BRN2^WT (Homo sapiens, UniProt P20265); experiment: microscale thermophoresis; format: binding
T1 sequence (P20265 264-415): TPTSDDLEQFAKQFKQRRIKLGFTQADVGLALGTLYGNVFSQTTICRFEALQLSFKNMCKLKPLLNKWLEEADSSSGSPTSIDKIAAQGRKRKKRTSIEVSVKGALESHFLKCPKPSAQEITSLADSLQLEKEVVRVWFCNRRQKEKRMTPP

| Kd [2] [nM] | Compound | inhibition at 10 µM [1] [%] | inhibition at 30 µM [1] [%] | % of Inhibition (Luciferase assay) / 10µM [1] [%] | % of Inhibition (Luciferase assay) / 30µM [1] [%] |
| --- | --- | --- | --- | --- | --- |
|  | Cn1c(-c2ccco2)nc2ccccc21 [B-57] | -138 | -172 |  |  |
|  | c1cc(-c2noc(C3CCCCC3)n2)ccn1 [B-28] | -139 | -180 |  |  |
|  | Cc1ccc(NCc2c[nH]c3ccccc23)cc1 [B-19] | -4.93 | 62 |  |  |
|  | Cc1ccccc1/C=N\Nc1nc2ccccc2[nH]1 [B-60] | -23.8 | 25.5 |  |  |
|  | O=C(CSc1nc2ccccc2[nH]1)c1ccc(Cl)cc1 [B-16] | 20.8 | 44.7 |  |  |
|  | Oc1ccccc1/C=N/Nc1nc2ccccc2[nH]1 [B-21] | -1.45 | 24.8 |  |  |
| 2040 | Clc1ccc2cc(-c3csc(-c4ccc[nH]4)n3)oc2c1 [B18-94] |  |  |  |  |
|  | C/C(=N/Nc1nc2ccccc2[nH]1)c1ccc(F)cc1 [B-48] | -46.2 | -6.79 |  |  |
|  | c1ccc(NCc2csc3ccccc23)cc1 [B-11] | -24.8 | -22.7 |  |  |
|  | O=C(CSc1nc2ccccc2[nH]1)c1ccccc1 [B-15] | -5 | 9.16 |  |  |
|  | Oc1ccc(/C=N/Nc2nc3ccccc3[nH]2)cc1O [B-44] | 0.0894 | 66.2 |  |  |
|  | C/C(=N\Nc1nc2ccccc2[nH]1)c1ccccc1 [B-58] |  | -58 |  |  |
|  | O=C(Nc1ccc(F)cc1)c1ccccc1 [B-9] | -61.5 | -58.1 |  |  |
|  | c1ccc(-c2ccc(-c3nc4ccccc4[nH]3)o2)cc1 [B-66] | 11 | 48 |  |  |
|  | CC/C(=N\Nc1nc2ccccc2[nH]1)c1ccc(F)cc1 [B-34] | 33.1 | 80 |  |  |
|  | COc1ccccc1/C=N\Nc1nc2ccccc2[nH]1 [B-61] | -172 | -70.4 |  |  |
|  | Oc1ccc(/C=N/Nc2nc3ccccc3[nH]2)c(O)c1O [B-43] | 12.5 | -1.16 |  |  |
|  | Cc1cc(C(=O)Nc2ccccc2)c2ccccc2n1 [B-1] | 14.6 | 1.27 |  |  |
|  | Clc1cccc(-c2ccc(-c3nc4cc(Cl)ccc4[nH]3)o2)c1 [B-72] | -50.2 | 87.1 |  |  |
|  | CC/C(=N\Nc1nc2ccccc2[nH]1)c1ccc(O)cc1 [B-35] | 0.336 | 50.1 |  |  |
|  | Fc1ccc(Cl)cc1/C=N/Nc1nc2ccccc2s1 [B-4] | 19.5 | 71.4 |  |  |
|  | Brc1ccc(-c2ccc(-c3nc4ccccc4[nH]3)o2)c(Br)c1 [B-69] | 90 | 94 |  |  |
|  | Oc1cccc(/C=N/Nc2nc3ccccc3[nH]2)c1 [B-54] | -45.1 | -34.4 |  |  |
|  | CC/C(=N/Nc1nc2ccccc2[nH]1)c1cccc(Cl)c1 [B-37] | 19.1 | 80.2 |  |  |

| Kd [2] [nM] | Compound | inhibition at 10 µM [1] [%] | inhibition at 30 µM [1] [%] | % of Inhibition (Luciferase assay) / 10µM [1] [%] | % of Inhibition (Luciferase assay) / 30µM [1] [%] |
| --- | --- | --- | --- | --- | --- |
|  | Cc1cc(C)c2c(c1)/C(=N/Nc1nc3ccccc3[nH]1)CCC2 [B-33] | 21.6 | 84.3 |  |  |
|  | Oc1ccc(/C=N/Nc2nc3ccccc3[nH]2)cc1 [B-50] | 66.3 | 72.1 |  |  |
|  | Clc1ccc(-c2ccc(-c3nc4ccccc4[nH]3)o2)cc1Cl [B-67] | -99.2 | 74 |  |  |
|  | COc1ccc(/C=N\Nc2nc3ccccc3[nH]2)cc1O [B-65] | 31 | 51 |  |  |
|  | Oc1ccc2ccccc2c1/C=N/Nc1nc2ccccc2[nH]1 [B-51] | -12.8 | 76.8 |  |  |
|  | c1ccc(-c2csc(-c3ccccn3)n2)cc1 [B-24] | -145 | -67.1 |  |  |
|  | Oc1c(Br)cc(Br)cc1/C=N/Nc1nc2ccccc2[nH]1 [B-53] | -127 | -80.2 |  |  |
|  | c1ccc(-c2nc(-c3cccnc3)no2)cc1 [B-27] |  | -166 |  |  |
|  | Cc1ccc(-c2nc3cc(N)ccc3n2C)o1 [B-63] | 22 | 44 |  |  |
|  | Clc1ccc(Cl)c(-c2ccc(-c3nc4ccccc4[nH]3)o2)c1 [B-71] | 46.2 |  |  |  |
|  | c1ccc2c(c1)CC/C2=N/Nc1ccc2ccccc2n1 [B-39] | 99.1 | 99.9 |  |  |
|  | c1ccc2c(c1)C(=NNc1nc3ccccc3[nH]1)c1ccccc1-2 [B-40] | 93.2 | 98.8 |  |  |
|  | Oc1c(Cl)cc(Cl)cc1/C=N/Nc1nc2ccccc2[nH]1 [B-31] | 22.6 | 12.7 |  |  |
|  | Cn1c(-c2ccco2)nc2cc(N)ccc21 [B-64] | 19 | 39 |  |  |
|  | C/C(=N/Nc1nc2ccccc2[nH]1)c1ccccc1O [B-42] | -3.59 | 66.8 |  |  |
|  | Oc1cccc(/C=N/Nc2nc3ccccc3[nH]2)c1O [B-59] |  | -145 |  |  |
|  | Cc1cc(C(=O)Nc2cccc(Cl)c2)c2cc(F)ccc2n1 [B-14] | 41.6 | 32 |  |  |
|  | Cn1c(-c2ccc(-c3ccccc3)o2)nc2ccccc21 [B18] | 97.6 | 99.4 |  |  |
|  | Cc1ccccc1/C=N/Nc1nc2ccccc2[nH]1 [B-47] | -2.99 | 36.5 |  |  |
|  | O=C(Oc1cccc(F)c1)c1cccc2ccccc12 [B-6] | -6.6 | -58 |  |  |
|  | Cn1c(-c2ccc(CO)o2)nc2ccccc21 [B-56] | -114 | -134 |  |  |
|  | C[C@@H]1Cc2ccccc2N1C(=O)c1cccc2ccccc12 [B-20] | 15.7 | 35.5 |  |  |
|  | Cc1cccc(C(=O)Oc2cccc3ccccc23)c1 [B-12] | 5.02 | -8.87 |  |  |
|  | COc1ccc(CNc2ccccc2)c2ccccc12 [B-17] | 3.97 | 12.2 |  |  |

| Kd [2] [nM] | Compound | inhibition at 10 µM [1] [%] | inhibition at 30 µM [1] [%] | % of Inhibition (Luciferase assay) / 10µM [1] [%] | % of Inhibition (Luciferase assay) / 30µM [1] [%] |
| --- | --- | --- | --- | --- | --- |
|  | C/C(=N\Nc1nc2ccccc2[nH]1)c1ccc2ccccc2c1O [B-45] | 77.2 | 91.8 |  |  |
|  | O=C1c2ccccc2C(=O)N1c1nc(-c2ccccc2)cs1 [B-22] | -129 | -138 |  |  |
|  | Oc1ccc(Cl)cc1/C=N/Nc1nc2ccccc2[nH]1 [B-30] | -6.38 | 28.1 |  |  |
|  | c1ccc2c(c1)CCC/C2=N\Nc1nc2ccccc2[nH]1 [B-32] | 32.4 | 77.2 |  |  |
|  | Cc1ccc(-c2noc(-c3ccncc3)n2)cc1 [B-26] | -147 | -38.9 |  |  |
|  | Oc1ccc(/C=N\Nc2nc3ccccc3[nH]2)cc1Cl [B-62] | 88.2 | 91.6 |  |  |
|  | C/C(=N/Nc1nc2ccccc2[nH]1)c1ccc(C)cc1 [B-38] | 25.9 | 74.3 |  |  |
|  | Oc1ccc(/C=N/Nc2nc3ccccc3[nH]2)c(O)c1 [B-49] | 46.1 | 70.8 |  |  |
|  | Cc1cc(C(=O)Nc2cc(F)ccc2C)c2ccccc2n1 [B-5] | 4.75 | 9.07 |  |  |
|  | Cc1ccc(-c2nc3ccccc3n2C)o1 [B-55] | -120 | -88.1 |  |  |
|  | COc1ccc(CNc2ccc(C)cc2)c2ccccc12 [B-2] | 19.6 | 24.4 |  |  |
|  | C/C(=N\Nc1nc2ccccc2[nH]1)c1ccc(O)cc1 [B-46] | 6.41 | 46.7 |  |  |
|  | O=C(Nc1cc(Cl)cc(Cl)c1)c1ccccc1 [B-13] |  |  | -8.507 | 43.29 |
|  | Oc1ccccc1/C=N\Nc1nc2ccccc2[nH]1 [B-3] | 69.2 | 75.5 |  |  |
|  | COc1ccc(O)c(/C=N/Nc2nc3ccccc3[nH]2)c1 [B-29] | -44.2 | 22.8 |  |  |
|  | O=C(Nc1cc(Cl)cc(Cl)c1)c1ccccc1 [B-10] |  |  | -70.87 | 68.05 |
|  | c1ccc([C@H]2COC(c3cccs3)=N2)cc1 [B-23] | -121 | -147 |  |  |
|  | Cn1c(N/N=C2/CCc3c(O)cccc32)nc2ccccc21 [B-36] | -39.4 | 28.6 |  |  |
|  | c1ccc(-c2ccc(N3CCOCC3)s2)cc1 [B-25] | -2.68 | 51.5 |  |  |
|  | C/C(=N/Nc1nc2ccccc2[nH]1)c1ccccc1Cl [B-41] | 18.8 | 74.1 |  |  |
|  | Clc1cc(Br)ccc1-c1ccc(-c2nc3ccccc3[nH]2)o1 [B-70] | 88.1 | 91.7 |  |  |
|  | Clc1ccccc1-c1ccc(-c2nc3ccccc3[nH]2)o1 [B-68] | 54.9 | 94.4 |  |  |
|  | Oc1ccc(Br)cc1/C=N/Nc1nc2ccccc2[nH]1 [B-52] | 27.1 | 21.3 |  |  |
